In US4820834A, “Benzodiazepine analogs” (priority 1987, dated 1989):
Where two headings read alike, the source gives them in different places.

Experiments:
[1] = molecular target: T1, CCK receptor (brain, cerebral cortex) (Cavia porcellus, UniProt H0VZC5); assay: biochemical; assay type: binding, Male Hartley guinea pigs; settings: guinea pig cerebral cortex, ^125 I-CCK-33, 25° C., 2 hours
T1 construct: Cerebral cortex was dissected and used as a receptor source; from tissue; host or cells: guinea pig cerebral cortex membranes (male Hartley)
T1 sequence (H0VZC5 1-426): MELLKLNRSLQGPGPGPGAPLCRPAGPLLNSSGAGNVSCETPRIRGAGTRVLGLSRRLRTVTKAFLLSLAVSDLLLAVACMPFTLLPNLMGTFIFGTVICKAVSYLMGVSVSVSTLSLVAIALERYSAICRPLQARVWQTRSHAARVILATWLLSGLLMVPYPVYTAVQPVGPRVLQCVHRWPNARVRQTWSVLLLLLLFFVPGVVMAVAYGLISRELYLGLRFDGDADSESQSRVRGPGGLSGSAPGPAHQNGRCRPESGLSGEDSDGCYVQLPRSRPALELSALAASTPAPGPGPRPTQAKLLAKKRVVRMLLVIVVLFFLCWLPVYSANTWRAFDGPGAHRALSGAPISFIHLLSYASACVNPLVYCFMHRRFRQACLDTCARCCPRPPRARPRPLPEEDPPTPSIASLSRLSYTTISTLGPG
How it was run: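 Binding of [radiolabeled] CCK-33 measured by gamma counting of centrifuged pellets after 2 h at 25°C. Membranes came from guinea pig brain cortex, suspended in 10 mM HEPES, 5 mM MgCl2, 1 mM EGTA, 0.25 mg/ml bacitracin, 0.4% BSA.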

[2] = molecular target: T2, CCK receptor (pancreas) (Rattus norvegicus, UniProt P30551); assay: CCK Receptor Binding (Pancreas): inhibition of ^125 I-CCK-33 binding; set-up: species or system Male Sprague-Dawley rats; settings: rat pancreas membranes, ^125 I-CCK-33, 37° C., 30 minutes
T2 construct: The whole pancreas was dissected free of fat tissue and was homogenized; from tissue; host or cells: rat pancreas membranes (Sprague-Dawley)
T2 sequence (P30551 1-444): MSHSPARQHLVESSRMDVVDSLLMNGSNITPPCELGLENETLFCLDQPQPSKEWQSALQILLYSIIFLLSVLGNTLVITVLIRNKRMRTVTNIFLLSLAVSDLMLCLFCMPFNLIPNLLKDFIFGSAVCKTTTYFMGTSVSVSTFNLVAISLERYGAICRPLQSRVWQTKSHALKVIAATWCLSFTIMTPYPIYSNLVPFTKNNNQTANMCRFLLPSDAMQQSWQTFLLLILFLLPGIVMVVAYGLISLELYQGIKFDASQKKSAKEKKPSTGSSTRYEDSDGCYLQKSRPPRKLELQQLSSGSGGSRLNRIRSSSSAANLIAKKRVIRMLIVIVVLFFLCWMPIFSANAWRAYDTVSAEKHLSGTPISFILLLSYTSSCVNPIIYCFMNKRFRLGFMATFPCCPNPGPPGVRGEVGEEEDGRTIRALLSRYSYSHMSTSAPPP
How it was run: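 Bound ^125I-CCK-33 was counted in pellets after a 30 min, 37° C incubation followed by centrifugation. Membranes came from male Sprague-Dawley rat pancreas, assayed in Tris HCl pH 7.7 containing DTT, bacitracin, PMSF and o-phenanthroline. For Scatchard analysis, tracer was diluted with rising unlabelled CCK-33.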

[3] = molecular target: T3, Gastrin receptor (gastric glands) (Cavia porcellus, UniProt H0VZC5); assay: Gastrin Receptor Binding in Guinea Pig Gastric Glands; set-up: species or system guinea pig (male Hartley); settings: 25° C., 30 minutes
T3 construct: The washed guinea pig gastric glands prepared as above were resuspended; from tissue; host or cells: guinea pig gastric mucosal glands (male Hartley)
T3 sequence (H0VZC5 1-426): T1 sequence (H0VZC5 1-426)

[4] = read-out: IC50 ^125 I-CCK Pancreas
[5] = IC50 ^125 I-Gastrin Gastric Glands
[6] = ^125 I-gastrin, read-out: IC50 ^125 I-Gastrin Gastric Glands
[7] = read-out: IC50 ^125 I-CCK Brain

Row | Compound | IC50 ([1]; IC50 ^125 I-CCK Brain) | IC50 [2, 4] | IC50 [3, 5] | IC50 [3, 6] | IC50 [1, 7] | IC50 ([2]; IC50 ^125 I-CCK Pancreas)
1 | CN1C(=O)C(NC(=O)Nc2cccc(Cl)c2)N=C(c2ccccc2)c2ccccc21 (stereo not drawn) [Example 265, N-(3-Chlorophenyl)-N'-(2,3-dihydro-1-methyl-2-oxo-5-phenyl-1H-1,4-benzodiazepin-3-yl)urea] | 9.8 nM | 8.2 nM | 3.1 nM |  |  | 
2 | COc1cccc(NC(=O)N[C@@H]2N=C(c3ccccc3)c3ccccc3N(C)C2=O)c1 [Example 266, (R)-N-(2,3-Dihydro-1-methyl-2-oxo-5-phenyl-1H-1,4-benzodiazepin-3-yl)-N'-(3-methoxyphenyl)-urea] | 2.2 nM | 600 nM |  | 1.3 nM |  | 
3 | COc1cccc(NC(=O)N[C@H]2N=C(c3ccccc3)c3ccccc3N(C)C2=O)c1 [Example 267, (S)-N-(2,3-Dihydro-1-methyl-2-oxo-5-phenyl-1H-1,4-benzodiazepin-3-yl)-N'-(3-methoxyphenyl)-urea] | 290 nM | 1.3 nM |  | 190 nM |  | 
4 | COc1cccc(CC(=O)N[C@H]2N=C(c3ccccc3)c3ccccc3N(C)C2=O)c1 [Example 268, (S)-N-(2,3-Dihydro-1-methyl-2-oxo-5-phenyl-1H-1,4-benzodiazepin-3-yl)-3-methoxybenzeneacetamide] |  |  |  | 420 nM | 2100 nM | 330 nM
5 | COc1cccc(CC(=O)N[C@@H]2N=C(c3ccccc3)c3ccccc3N(C)C2=O)c1 [Example 269, (R)-N-(2,3-Dihydro-1-methyl-2-oxo-5-phenyl-1H-1,4-benzodiazepin-3-yl)-3-methoxybenzenacetamide] |  |  |  | 450 nM | 690 nM | 45000 nM
6 | CN1C(=O)C(NC(=O)Nc2ccccc2[N+](=O)[O-])N=C(c2ccccc2)c2ccccc21 (stereo not drawn) [Example 270, N-(2,3-Dihydro-1-methyl-2-oxo-5-phenyl-1H-1,4-benzodiazepin-3-yl)-N'-(2-nitrophenyl)-urea] | 1200 nM | 3 nM | 500 nM |  |  | 
7 | CN1C(=O)C(NC(=O)Nc2cccc(F)c2)N=C(c2ccccc2)c2ccccc21 (stereo not drawn) [Example 271, N-(2,3-Dihydro-1-methyl-2-oxo-5-phenyl-1H-1,4-benzodiazepin-3-yl)-N'-(3-fluorophenyl)-urea] | 54 nM | 10 nM | 10 nM |  |  | 
8 | CN1C(=O)C(NC(=O)Nc2cccc(Br)c2)N=C(c2ccccc2)c2ccccc21 (stereo not drawn) [Example 272, N-(3-Bromophenyl)-N'-(2,3-dihydro-1-methyl-2-oxo-5-phenyl-1H-1,4-benzodiazepin-3-yl)-urea] | 5 nM | 4.4 nM | 2.8 nM |  |  | 
9 | CN1C(=O)C(NC(=O)Nc2cccc3ccccc23)N=C(c2ccccc2)c2ccccc21 (stereo not drawn) [Example 273, N-(2,3-Dihydro-1-methyl-2-oxo-5-phenyl-1H-1,4-benzodiazepin-3-yl)-N'-1-naphthalenyl-urea] |  |  |  | 57 nM | 79 nM | 8.6 nM
10 | COc1cc(NC(=O)NC2N=C(c3ccccc3)c3ccccc3N(C)C2=O)cc(OC)c1 (stereo not drawn) [Example 274] |  | 310 nM |  | 1600 nM | 2300 nM | 
11 | COc1cccc(NC(=O)NC2N=C(c3ccccc3)c3ccccc3NC2=O)c1 (stereo not drawn) [Example 275, N-(2,3-Dihydro-2-oxo-5-phenyl-1H-1,4-benzodiazepin-3-yl)-N'-(3-methoxyphenyl)-urea] | 110 nM |  | 120 nM |  |  | 20 nM
12 | CN1C(=O)[C@@H](NC(=O)Nc2ccccc2Cl)N=C(c2ccccc2)c2ccccc21 [Example 276, (S)-N-(2,3-Dihydro-1-methyl-2-oxo-5-phenyl-1H-1,4-benzodiazepin-3-yl)-N'-(2-chlorophenyl)-urea] |  |  |  | 240 nM | 280 nM | 0.39 nM
13 | CN1C(=O)C(NC(=S)Nc2ccccc2)N=C(c2ccccc2)c2ccccc21 (stereo not drawn) [Example 277, N-(2,3-Dihydro-1-methyl-2-oxo-5-phenyl-1H-1,4-benzodiazepin-3-yl)-N'-phenylthiourea] |  |  |  | 2600 nM | 860 nM | 18 nM
14 | COc1ccccc1NC(=O)NC1N=C(c2ccccc2)c2ccccc2N(C)C1=O (stereo not drawn) [Example 278, N-(2,3-Dihydro-1-methyl-2-oxo-5-phenyl-1H-1,4-benzodiazepin-3-yl)-N'-(2-methoxyphenyl)-urea] |  | 600 nM |  | 1000 nM | 1200 nM | 
15 | CC(C)(C)C(=O)OCOC(=O)CN1C(=O)C(NC(=O)c2cc3ccccc3[nH]2)N=C(c2ccccc2)c2ccccc21 (stereo not drawn) [Example 279, 1-Pivaloyloxymethyloxycarbonylmethyl-1,3-dihydro-3-(2-indolecarbonylamino)-5-phenyl-2H-1,4-benzodiazepin-2-one] |  |  |  | 600 nM | 310 nM | 11 nM
16 | COc1cccc(NC(=O)NC2N=C(c3ccccc3)c3ccccc3NC2=S)c1 (stereo not drawn) [Example 280, N-(2,3-Dihydro-5-phenyl-2-thioxo-1H-1,4-benzodiazepin-3-yl)-N'-(3-methoxyphenyl)-urea] | 970 nM |  | 250 nM |  |  | 15 nM
17 | CN1C(=O)[C@H](NC(=O)Nc2cccc(Br)c2)N=C(c2ccccc2)c2ccccc21 [Example 282, (R)-N-(2,3-Dihydro-1-methyl-2-oxo-5-phenyl-1H-1,4-benzodiazepin-3-yl)-N'-(3-bromophenyl)-urea] | 3.8 nM | 840 nM | 1.6 nM |  |  | 
18 | COc1cccc(NC(=O)NC2N=C(c3ccccc3)c3ccccc3N(CC(=O)N3CCCC3)C2=O)c1 (stereo not drawn) [Example 284, 1-{[3-[(((3-Methoxyphenyl)amino)carbonyl)amino]-2,3-dihydro-2-oxo-5-phenyl-1H-1,4-benzodiazepin-1-yl]acetyl}pyrrolidine] | 0.34 nM |  | 0.5 nM |  |  | 17 nM
19 | CCN(CC)C(=O)CN1C(=O)C(NC(=O)Nc2cccc(OC)c2)N=C(c2ccccc2)c2ccccc21 (stereo not drawn) [Example 285, 3-{[((3-Methoxyphenyl)amino)carbonyl)amino]-N,N-diethyl-2,3-dihydro-2-oxo-5-phenyl-1H-1,4-benzodiazepin-1-acetamide] |  |  |  | 0.26 nM | 0.22 nM | > 100 nM
20 | CCN(CC)C(=O)CN1C(=O)C(NC(=O)Nc2ccccc2Cl)N=C(c2ccccc2)c2ccccc21 (stereo not drawn) [Example 286, 3-{[((2-Chlorophenyl)amino)carbonyl]amino}-N,N-diethyl-2,3-dihydro-2-oxo-5-phenyl-1H-1,4-benzodiazepine-1-acetamide] |  |  |  | 1.5 nM | 3.8 nM | > 100 nM
21 | Cc1cccc2c1NC(=O)C(NC(=O)c1cc3ccccc3[nH]1)N=C2c1ccccc1 (stereo not drawn) [Example 287, 3-N-(2,3-Dihydro-9-methyl-2-oxo-5-phenyl-1H-1,4-benzodiazeoin-3-yl)-1H-indole-2-carboxamide] |  |  |  | 950 nM | 1000 nM | 0.74 nM
22 | COc1cccc(NC(=O)NC2N=C(c3ccccc3)c3cccc(C)c3NC2=O)c1 (stereo not drawn) [Example 288, N-(3-Methoxyphenyl)-N'-(2,3-dihydro-9-methyl-2-oxo-5-phenyl-1H-1,4-benzodiazepin-3-yl)-urea] |  |  |  | 54 nM | 42 nM | 75 nM
23 | Cc1cccc2c1N(C)C(=O)C(NC(=O)c1cc3ccccc3[nH]1)N=C2c1ccccc1 (stereo not drawn) [Example 289, 3-N-(2,3-Dihydro-1,9-dimethyl-2-oxo-5-phenyl-1H-1,4-benzodiazepin-3-yl)-1H-indole-2-carboxamide] |  |  |  | 660 nM | 89 nM | 0.1 nM
24 | COc1cccc(NC(=O)NC2N=C(c3ccccc3)c3cccc(C)c3N(C)C2=O)c1 (stereo not drawn) [Example 290, N-(3-Methoxyphenyl)-N'-(2,3-dihydro-1,9-dimethyl-2-oxo-5-phenyl-1H-1,4-benzodiazepin-3-yl)-urea] |  |  |  | 8.7 nM | 15 nM | 2 nM
